Measurements published in publication PMC8619920, “New Polyesterified Ursane Derivatives from Leaves of Maesa membranacea and Their Cytotoxic Activity” (Molecules, 2021).

Experiments:
[1] = Cytotoxicity, LDH assay, Caco-2 cells; format: cell-based, human; conditions: human, Caco-2, 24 h, mean ± SD of three, read-out: Cell viability Caco-2
Experimental: (§1) Cytotoxic activity was tested on human cancer and normal cells, grouped in three panels, namely: prostate, skin and gastrointestinal. The prostate panel consisted of prostate cancer cell lines Du145 (ATCC HTB-81) and PC3 (ATCC CRL-1435), and prostate epithelial cells PNT-2 (ECACC 95012613). Melanoma cell lines A375 (ATCC CRL-1619) and HTB140 (ATCC Hs 294T) together with skin keratinocytes HaCaT (obtained as a kind gift of prof. Marta Michalik, Department of Cell Biology, Jagiellonian University, Kraków, Poland) were included into the skin panel. The gastrointestinal panel of cells comprised colon cancer cell lines Caco-2 (ATCC HTB-37) and HT29 (ATCC HTB-38). Du145 cells were grown in Modified Eagle’s Medium with low (1.0 g/L) glucose concentration, HT29, PC3 and PNT-2 cells in Dulbecco’s Modified Eagle’s Media: F12 HAM Nutrient Mixture, Caco-2 in Modified Eagle’s Medium with NEAA (no-essential amino acids) while melanoma cells and keratinocytes were maintained in Modified Eagle’s Medium with high (4.5 g/L) glucose concentration. The culture media (all supplied by Sigma-Aldrich Co.; St. Louis, MO, USA) contained antibiotics and 10% fetal bovine serum (FBS). All cultures were maintained at 37 °C, in a humidified, 5% CO2 containing, atmosphere.
(§2) The examined triterpenes were diluted in the culture media from freshly made stock solutions in MeOH (10 mg/mL) to the working concentrations (from 0 to 100 μg/mL).
(§3) Cell viability was determined as it was described previously. Cells suspended in the nutrient medium were transferred into 96-well microtiter plates (density 1.5 × 10^4 per well), and preincubated for 24 h (37 °C, 5% CO2). Then, the culture medium was replaced with the medium containing different concentrations of 1 or 2 (1–100 μg/mL). After 24 h of incubation, viability of the cells was determined using colorimetric lactate dehydrogenase (LDH) assay, in comparison to the controls to which corresponding aliquots of MeOH diluted with culture media were added. Cells grown in the medium without the tested compounds were used as control I (negative) and the positive control (control II) was obtained by incubation of the cells in the medium containing 1% Triton X-100. LDH released from the damaged cells into the cell culture medium was quantified by measuring the absorbance at 490 nm using Synergy II Biotek (BioTek Instruments, Winooski, VT, USA) microplate reader. Cytotoxicities of the examined compounds were calculated as follows: [(absorbance of the tested sample − absorbance of control I)/(absorbance of control II − absorbance of control I)] × 100. Results were means of three independent measurements (± SD). Doxorubicin (Ebewe Pharma GmbH., Unterach, Austria) was used as a reference cytostatic drug. The IC50 values were determined by plotting the percentage viability of the cells versus concentration and the adequate calculations made using AAT Bioquest website program (https://www.aatbio.com/tools/ic50-calculator, accessed on 29 October 2021).

[2] = test system: Caco-2 human colon adenocarcinoma cells; test: Cytotoxicity, LDH assay, Caco-2 cells; format: cell-based; conditions: 24 h treatment; for IC50: Homo sapiens, Caco-2, 24 h
Experimental: as §1, §2, §3

[3] = Cytotoxicity, LDH assay, HTB140 cells; format: cell-based, human; conditions: human, HTB140 melanoma cells, 24 h, mean ± SD of three, read-out: Cell viability HTB140
Experimental: as §1, §2, §3

[4] = test system: HTB140 human melanoma cells; test: Cytotoxicity, LDH assay, HTB140 cells; format: cell-based; conditions: Homo sapiens; 24 h treatment, 5–100 μg/mL
Experimental: as §1, §2, §3

[5] = Cytotoxicity, LDH assay, A375 cells; format: cell-based, human; conditions: human, A375 malignant melanoma cells, 24 h, mean ± SD of three, read-out: Cell viability A375
Experimental: as §1, §2, §3

[6] = test system: A375 human malignant melanoma cells; test: Cytotoxicity, LDH assay, A375 cells; format: cell-based; conditions: Homo sapiens, A-375; 24 h treatment, 5–100 μg/mL
Experimental: as §1, §2, §3

[7] = test system: HT29 human colon adenocarcinoma cells; test: Cytotoxicity, LDH assay, HT29 cells; format: cell-based; conditions: Homo sapiens, HT-29; 24 h treatment, 5–100 μg/mL
Experimental: as §1, §2, §3

[8] = Cytotoxicity, LDH assay, HT29 cells; format: cell-based, human; conditions: human, HT29 colon adenocarcinoma cells, 24 h, mean ± SD of three, read-out: Cell viability HT29
Experimental: as §1, §2, §3

[9] = Cytotoxicity, LDH assay, DU145 cells; format: cell-based, human; conditions: human, DU145 prostate carcinoma cells, 24 h, mean ± SD of three, read-out: Cell viability DU145
Experimental: as §1, §2, §3

[10] = test system: DU145 human prostate carcinoma cells; test: Cytotoxicity, LDH assay, DU145 cells; format: cell-based; conditions: 24 h treatment; for IC50: Homo sapiens, DU-145, 24 h
Experimental: as §1, §2, §3

[11] = Cytotoxicity, LDH assay, PC3 cells; format: cell-based, human; conditions: human, PC3 prostate adenocarcinoma cells, 24 h, mean ± SD of three, read-out: Cell viability PC3
Experimental: as §1, §2, §3

[12] = test system: PC3 human prostate adenocarcinoma cells; test: Cytotoxicity, LDH assay, PC3 cells; format: cell-based; conditions: 24 h treatment; for IC50: Homo sapiens, PC-3, 24 h
Experimental: as §1, §2, §3

[13] = test system: HaCaT human immortalized keratinocytes; test: Cytotoxicity, LDH assay, HaCaT cells; format: cell-based; conditions: Homo sapiens, HaCaT; 24 h treatment, 5–100 μg/mL
Experimental: as §1, §2, §3

CCC(C)C(=O)OC1C=C2C3C(C)C(C)(O)CC(OC(C)=O)C3(C)CCC2(C)C2(C)CC(OC(C)=O)C3C(C)(C)C(O)C(OC(C)=O)CC3(C)C12 (stereo not drawn) [Compound 1, 2α,6β,22α-triacetoxy-11α-(2-methylbutyryloxy)-urs-12-ene-3α,20β-diol]
viability at 24 h, 5 μg/mL ([1]; 5 μg/mL): 95.55 ± 0.74%
viability at 24 h, 10 μg/mL ([1]; 10 μg/mL): 88.7 ± 0.93%
viability at 24 h, 20 μg/mL ([1]; 20 μg/mL): 78.5 ± 1.94%
viability at 24 h, 30 μg/mL ([1]; 30 μg/mL): 65.9 ± 1.21%
viability at 24 h, 40 μg/mL ([1]; 40 μg/mL): 51.1 ± 2.4%
viability at 24 h, 50 μg/mL ([1]; 50 μg/mL): 35.8 ± 1.32%
viability at 24 h, 100 μg/mL ([1]; 100 μg/mL): 22.2 ± 1.53%
IC50 Caco-2 ([2]; 5–100 μg/mL): 35.65 µg/mL
IC50 ([2]; 5–100 μg/mL): 35.7 µg/mL
IC50 ([2]; value in brackets, footnote d): 49.8 µM
viability at 24 h, 5 μg/mL ([3]; 5 μg/mL): 96.2 ± 1.12%
viability at 24 h, 10 μg/mL ([3]; 10 μg/mL): 93.82 ± 0.73%
viability at 24 h, 20 μg/mL ([3]; 20 μg/mL): 87.1 ± 2.09%
viability at 24 h, 30 μg/mL ([3]; 30 μg/mL): 78.9 ± 2.08%
viability at 24 h, 40 μg/mL ([3]; 40 μg/mL): 68.4 ± 2.17%
viability at 24 h, 50 μg/mL ([3]; 50 μg/mL): 59.5 ± 1.4%
viability at 24 h, 100 μg/mL ([3]; 100 μg/mL): 46.6 ± 2.09%
IC50 [4]: > 50 µg/mL
viability at 24 h, 5 μg/mL ([5]; 5 μg/mL): 97.23 ± 0.57%
viability at 24 h, 10 μg/mL ([5]; 10 μg/mL): 96.44 ± 0.92%
viability at 24 h, 20 μg/mL ([5]; 20 μg/mL): 92.8 ± 1.11%
viability at 24 h, 30 μg/mL ([5]; 30 μg/mL): 87.2 ± 2.17%
viability at 24 h, 40 μg/mL ([5]; 40 μg/mL): 79.8 ± 2.02%
viability at 24 h, 50 μg/mL ([5]; 50 μg/mL): 70.2 ± 1.39%
viability at 24 h, 100 μg/mL ([5]; 100 μg/mL): 62.6 ± 2.03%
IC50 [6]: > 100 µg/mL
IC50 [7]: > 100 µg/mL
viability at 24 h, 5 μg/mL ([8]; 5 μg/mL): 97.04 ± 0.42%
viability at 24 h, 10 μg/mL ([8]; 10 μg/mL): 95.49 ± 0.82%
viability at 24 h, 20 μg/mL ([8]; 20 μg/mL): 90.9 ± 1.37%
viability at 24 h, 30 μg/mL ([8]; 30 μg/mL): 81.5 ± 1.89%
viability at 24 h, 40 μg/mL ([8]; 40 μg/mL): 72.5 ± 1.94%
viability at 24 h, 50 μg/mL ([8]; 50 μg/mL): 64.8 ± 1.69%
viability at 24 h, 100 μg/mL ([8]; 100 μg/mL): 55.2 ± 1.73%
viability at 24 h, 5 μg/mL ([9]; 5 μg/mL): 93.19 ± 0.93%
viability at 24 h, 10 μg/mL ([9]; 10 μg/mL): 83.1 ± 1.96%
viability at 24 h, 20 μg/mL ([9]; 20 μg/mL): 70.4 ± 1.69%
viability at 24 h, 30 μg/mL ([9]; 30 μg/mL): 57.2 ± 2.2%
viability at 24 h, 40 μg/mL ([9]; 40 μg/mL): 41.3 ± 1.91%
viability at 24 h, 50 μg/mL ([9]; 50 μg/mL): 27.2 ± 2.28%
viability at 24 h, 100 μg/mL ([9]; 100 μg/mL): 9.87 ± 1.59%
IC50 DU145 ([10]; 5–100 μg/mL): 35.83 µg/mL
IC50 ([10]; 5–100 μg/mL): 35.8 µg/mL
IC50 ([10]; value in brackets, footnote d): 50 µM
viability at 24 h, 5 μg/mL ([11]; 5 μg/mL): 96.2 ± 1.04%
viability at 24 h, 10 μg/mL ([11]; 10 μg/mL): 90.7 ± 0.93%
viability at 24 h, 20 μg/mL ([11]; 20 μg/mL): 83.9 ± 1.67%
viability at 24 h, 30 μg/mL ([11]; 30 μg/mL): 74.8 ± 1.17%
viability at 24 h, 40 μg/mL ([11]; 40 μg/mL): 62.6 ± 1.36%
viability at 24 h, 50 μg/mL ([11]; 50 μg/mL): 45.7 ± 1.85%
viability at 24 h, 100 μg/mL ([11]; 100 μg/mL): 28.1 ± 2.31%
IC50 PC3 ([12]; 5–100 μg/mL): 41.64 µg/mL
IC50 ([12]; 5–100 μg/mL): 41.6 µg/mL
IC50 ([12]; value in brackets, footnote d): 58.1 µM
IC50 [13]: > 100 µg/mL
